Laboratory results published in ChEMBL document CHEMBL1152559, “Antioxidant activity of 5,10-dihydroindeno[1,2-b]indoles containing substituents on dihydroindeno part” (Bioorg Med Chem, 2009).
Converted amounts (≈) assume the structure as drawn.

Key:
Format in all cases: functional
[1] = test system: Radical scavenging activity; assay: Antioxidant activity assessed as DPPH radical scavenging activity
[2] = Antioxidant activity assessed as ABTS radical scavenging activity
[3] = Antioxidant activity assessed as DMPD radical scavenging activity
[4] = Antioxidant activity assessed as superoxide anion scavenging activity by NBT reduction assay
[5] = Antioxidant activity assessed as hydrogen peroxide radical scavenging activity

| IC50 [1] | IC50 [2] | IC50 [3] | IC50 [4] | IC50 [5] | Structure (SMILES) |
| --- | --- | --- | --- | --- | --- |
| 48.57 µg/mL (≈ 206 µM) | 54.15 µg/mL (≈ 230 µM) | 15.01 µg/mL (≈ 63.8 µM) | 19.86 µg/mL (≈ 84.4 µM) | 7.02 µg/mL (≈ 29.8 µM) | COc1ccc2c(c1)-c1[nH]c3ccccc3c1C2 |
| 64.12 µg/mL (≈ 226 µM) | 63.63 µg/mL (≈ 224 µM) | 15.34 µg/mL (≈ 54 µM) | 14.39 µg/mL (≈ 50.6 µM) | 8.47 µg/mL (≈ 29.8 µM) | Brc1ccc2c(c1)Cc1c-2[nH]c2ccccc12 |
| 49.73 µg/mL (≈ 223 µM) | 39.1 µg/mL (≈ 175 µM) | 31.47 µg/mL (≈ 141 µM) | 16.49 µg/mL (≈ 73.9 µM) | 4.41 µg/mL (≈ 19.8 µM) | Fc1ccc2c(c1)Cc1c-2[nH]c2ccccc12 |
| 11.67 µg/mL (≈ 52.7 µM) | 39.85 µg/mL (≈ 180 µM) | 130.07 µg/mL (≈ 588 µM) | 26.61 µg/mL (≈ 120 µM) | 4.47 µg/mL (≈ 20.2 µM) | Oc1ccc2c(c1)Cc1c-2[nH]c2ccccc12 |
| 44.18 µg/mL (≈ 184 µM) | 82.87 µg/mL (≈ 346 µM) | 57.89 µg/mL (≈ 242 µM) | 16.2 µg/mL (≈ 67.6 µM) | 30.52 µg/mL (≈ 127 µM) | Clc1ccc2c(c1)Cc1c-2[nH]c2ccccc12 |
| 38.16 µg/mL (≈ 162 µM) | 29.91 µg/mL (≈ 127 µM) | 28.5 µg/mL (≈ 121 µM) | 21.99 µg/mL (≈ 93.5 µM) | 3.74 µg/mL (≈ 15.9 µM) | COc1cccc2c1Cc1c-2[nH]c2ccccc12 |
| 37.79 µg/mL (≈ 161 µM) | 68.03 µg/mL (≈ 289 µM) | 17.45 µg/mL (≈ 74.2 µM) | 24.37 µg/mL (≈ 104 µM) | 9.08 µg/mL (≈ 38.6 µM) | COc1ccc2c(c1)Cc1c-2[nH]c2ccccc12 |
| 27.4 µg/mL (≈ 124 µM) | 20.71 µg/mL (≈ 93.6 µM) | 14.76 µg/mL (≈ 66.7 µM) | 18.55 µg/mL (≈ 83.8 µM) | 3.25 µg/mL (≈ 14.7 µM) | Oc1ccc2c(c1)-c1[nH]c3ccccc3c1C2 |

More lines, now with the values behind:

| Structure (SMILES) | IC50 [1] | IC50 [2] | IC50 [3] | IC50 [4] | IC50 [5] |
| --- | --- | --- | --- | --- | --- |
| COc1cc2c(c(OC)c1)-c1[nH]c3ccccc3c1C2 | 33.31 µg/mL (≈ 126 µM) | 23.04 µg/mL (≈ 86.8 µM) | 60.46 µg/mL (≈ 228 µM) | 20.43 µg/mL (≈ 77 µM) | 3.35 µg/mL (≈ 12.6 µM) |
| Oc1ccc(O)c2c1Cc1c-2[nH]c2ccccc12 | 11.92 µg/mL (≈ 50.2 µM) | 21.56 µg/mL (≈ 90.9 µM) | 22.2 µg/mL (≈ 93.6 µM) | 15.49 µg/mL (≈ 65.3 µM) | 3.28 µg/mL (≈ 13.8 µM) |
| COc1ccc(OC)c2c1Cc1c-2[nH]c2ccccc12 | 51.67 µg/mL (≈ 195 µM) | 32.76 µg/mL (≈ 123 µM) | 24.87 µg/mL (≈ 93.7 µM) | 15.75 µg/mL (≈ 59.4 µM) | 3.92 µg/mL (≈ 14.8 µM) |
| Oc1cc2c(cc1O)-c1[nH]c3ccccc3c1C2 | 29.44 µg/mL (≈ 124 µM) | 45.98 µg/mL (≈ 194 µM) | 76.58 µg/mL (≈ 323 µM) | 14.1 µg/mL (≈ 59.4 µM) | 5.09 µg/mL (≈ 21.5 µM) |
| c1ccc2c(c1)Cc1c-2[nH]c2ccccc12 | 65.91 µg/mL (≈ 321 µM) | 58.66 µg/mL (≈ 286 µM) | 32.92 µg/mL (≈ 160 µM) | 12.64 µg/mL (≈ 61.6 µM) | 7.14 µg/mL (≈ 34.8 µM) |
| Oc1cccc2c1-c1[nH]c3ccccc3c1C2 | 10.12 µg/mL (≈ 45.7 µM) | 9.72 µg/mL (≈ 43.9 µM) | 127.21 µg/mL (≈ 575 µM) | 21.69 µg/mL (≈ 98 µM) | 2.8 µg/mL (≈ 12.7 µM) |
| Oc1ccc2c(c1O)Cc1c-2[nH]c2ccccc12 | 9.47 µg/mL (≈ 39.9 µM) | 79.02 µg/mL (≈ 333 µM) | 34.79 µg/mL (≈ 147 µM) | 31.14 µg/mL (≈ 131 µM) | 3.16 µg/mL (≈ 13.3 µM) |
| Oc1cc(O)c2c(c1)Cc1c-2[nH]c2ccccc12 | 72.89 µg/mL (≈ 307 µM) | 49.04 µg/mL (≈ 207 µM) | 39.38 µg/mL (≈ 166 µM) | 11.46 µg/mL (≈ 48.3 µM) | 5.47 µg/mL (≈ 23.1 µM) |
| COc1ccc2c(c1OC)Cc1c-2[nH]c2ccccc12 | 33.16 µg/mL (≈ 125 µM) | 81.39 µg/mL (≈ 307 µM) | 46.44 µg/mL (≈ 175 µM) | 12.42 µg/mL (≈ 46.8 µM) | 25.43 µg/mL (≈ 95.8 µM) |
| c1ccc2c3c([nH]c2c1)-c1cc2c(cc1C3)OCO2 | 13.07 µg/mL (≈ 52.4 µM) | 23.67 µg/mL (≈ 95 µM) | 18.62 µg/mL (≈ 74.7 µM) | 16.11 µg/mL (≈ 64.6 µM) | 3.39 µg/mL (≈ 13.6 µM) |
| Oc1cccc2c1Cc1c-2[nH]c2ccccc12 | 36.27 µg/mL (≈ 164 µM) | 64.69 µg/mL (≈ 292 µM) | 26.75 µg/mL (≈ 121 µM) | 18.67 µg/mL (≈ 84.4 µM) | 8.82 µg/mL (≈ 39.9 µM) |
| COc1cc2c(cc1OC)-c1[nH]c3ccccc3c1C2 | 25.76 µg/mL (≈ 97.1 µM) | 73.99 µg/mL (≈ 279 µM) | 52.83 µg/mL (≈ 199 µM) | 17.09 µg/mL (≈ 64.4 µM) | 13.86 µg/mL (≈ 52.2 µM) |
| Cc1c(C)c2c(c(C)c1O)CC[C@@](C)(CCC[C@H](C)CCC[C@H](C)CCCC(C)C)O2 [ALPHA-TOCOPHEROL] | 13.41 µg/mL (≈ 31.1 µM) | 73.15 µg/mL (≈ 170 µM) |  | 33.17 µg/mL (≈ 77 µM) | 11.82 µg/mL (≈ 27.4 µM) |
| COc1ccc(O)c(C(C)(C)C)c1.COc1ccc(O)cc1C(C)(C)C [BUTYLATED HYDROXYANISOLE] | 16.67 µg/mL | 4.65 µg/mL | 32.92 µg/mL | 68.82 µg/mL | 2.65 µg/mL |
| Cc1cc(C(C)(C)C)c(O)c(C(C)(C)C)c1 [BUTYLATED HYDROXYTOLUENE] | 42.91 µg/mL (≈ 195 µM) | 52.81 µg/mL (≈ 240 µM) | 17.45 µg/mL (≈ 79.2 µM) | 49.48 µg/mL (≈ 225 µM) | 5.97 µg/mL (≈ 27.1 µM) |
| Cc1c(C)c2c(c(C)c1O)CCC(C)(C(=O)O)O2 (stereo not drawn) [TROLOX] | 10.03 µg/mL (≈ 40.1 µM) | 62.32 µg/mL (≈ 249 µM) | 195.11 µg/mL (≈ 780 µM) |  | 8.06 µg/mL (≈ 32.2 µM) |
